Data: patent US8088806B2 (Achillion Pharmaceuticals, Inc., priority 2005, dated 2012)

system: HCV replicon; assay: Replicon based assay of HCV replication inhibition (NPT ELISA); format: cell-based, Hepatitis C virus; conditions: Hepatitis C virus, Huh-7, 72 h, Table I; Huh-7 HCV replicon-containing cells, three days; read-out: Activity
Method in brief: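 NPT (neomycin phosphotransferase) content, proportional to replicon replication, quantified by capture ELISA on day four. Before that, replicon-bearing Huh-7 cells in G418-free screening medium were exposed three days at 37° C to compound, typically six doses from 10 to 0.03 micromolar, with equal DMSO across wells.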

Compound | EC50
CCCCCOc1ccc(Nc2nc(-c3cc(-c4ccc(Cl)c(Cl)c4)no3)cs2)cc1F [compound 175, 4-(3-(3,4-dichlorophenyl)isoxazol-5-yl)-N-(3-fluoro-4-(pentyloxy)phenyl)thiazol-2-amine] | > 10000 nM
Fc1ccc(-c2csc(Nc3cccc(OCc4ccccc4)c3)n2)cc1 [compound 27, N-(3-(benzyloxy)phenyl)-4-(4-fluorophenyl)thiazol-2-amine] | < 1000 nM
Fc1ccc(Nc2nc(C(F)(F)F)c(-c3cccc(Cl)c3)s2)cc1 [compound 118, 5-(3-chlorophenyl)-4-(trifluoromethyl)-N-(4-fluorophenyl)thiazol-2-amine] | > 10000 nM
Clc1ccccc1-c1csc(Nc2cccc(OCc3ccccc3)c2)n1 [compound 196, N-(3-(benzyloxy)phenyl)-4-(2-chlorophenyl)thiazol-2-amine] | < 1000 nM
Clc1ccccc1-c1csc(Nc2cccc(Oc3ccccc3)c2)n1 [compound 191, 4-(2-chlorophenyl)-N-(3-phenoxyphenyl)thiazol-2-amine] | < 1000 nM
CCCCCOc1ccc(Nc2nc(-c3ccc(F)cc3)cs2)cc1C(F)(F)F [compound 2, N-(3-(trifluoromethyl)-4-(pentyloxy)phenyl)-4-(4-fluorophenyl)thiazol-2-amine] | < 1000 nM
CCCCCCCOc1ccc(Nc2nc(-c3cccnc3)cs2)cc1 [compound 92, N-(4-(heptyloxy)phenyl)-4-(pyridin-3-yl)thiazol-2-amine] | < 1000 nM
CCCCCOc1ccc(N(C(=O)c2cccnc2)c2nc(NC(=O)c3cccnc3)cs2)cc1C(F)(F)F [compound 140, N-(2-(N-(3-(trifluoromethyl)-4-(pentyloxy)phenyl)nicotinamido)-thiazol-4-yl)nicotinamide] | < 1000 nM
CCCCCOc1ccc(Nc2nc(-c3cc(-c4ccc(Cl)c(Cl)c4)no3)cs2)cc1C(F)(F)F [compound 201, 4-(3-(3,4-dichlorophenyl)isoxazol-5-yl)-N-(3-(trifluoromethyl)-4-(pentyloxy)phenyl)thiazol-2-amine] | > 10000 nM
CN(C(=O)c1nc(-c2cccnc2)cs1)c1ccc(Cl)c(Cl)c1 [compound 124, N-(3,4-dichlorophenyl)-N-methyl-4-(pyridin-3-yl)thiazole-2-carboxamide] | > 10000 nM
CCCCCc1ccc(Nc2nc(-c3ccc(F)cc3)cs2)cc1 [compound 19, 4-(4-fluorophenyl)-N-(4-pentylphenyl)thiazol-2-amine] | < 1000 nM

same assay, conditions: Hepatitis C virus, Huh-7, 72 h, Table III; Huh-7 HCV replicon-containing cells, three days; read-out: Activity

Compound | EC50
CCCCCCCCOc1ccc(Nc2nc(-c3cnc(Cl)nc3)cs2)cc1 [compound 619, 4-(2-chloropyrimidin-5-yl)-N-(4-(octyloxy)phenyl)thiazol-2-amine] | < 1000 nM
N#Cc1ccc(-c2csc(Nc3ccc(OC4CCCC4)c(C(F)(F)F)c3)n2)cn1 [compound 616, 5-(2-(4-(cyclopentyloxy)-3-(trifluoromethyl)phenylamino)thiazol-4-yl)pyridine-2-carbonitrile] | < 1000 nM
CCCCCCCc1ccc(Nc2nc(-c3ccc4c(c3)NC(=O)CO4)cs2)cc1 [compound 560] | < 1000 nM
CCCCCCCCN(C)c1ccc(Nc2nccs2)cc1C(F)(F)F [compound 624, 2-(trifluoromethyl)-N^1-methyl-N^1-octyl-N^4-(thiazol-2-yl)benzene-1,4-diamine] | < 1000 nM
CCCCCCCc1ccc(Nc2nc(-c3ccc(O)c(C(N)=O)c3)cs2)cc1 [compound 557, 5-(2-(4-heptylphenylamino)thiazol-4-yl)-2-hydroxybenzamide] | < 1000 nM
CCCCCCCCOc1ccc(Nc2nc(-c3ccc(N)nn3)cs2)cc1C(F)(F)F [compound 670, 6-(2-(3-(trifluoromethyl)-4-(octyloxy)phenylamino)thiazol-4-yl)pyridazin-3-amine] | < 1000 nM
FC(F)(F)c1cc(Nc2nc(-c3cccnc3)cs2)ccc1OCCCN1CCOCC1 [compound 693, N-(4-(3-morpholinopropoxy)-3-(trifluoromethyl)phenyl)-4-(pyridin-3-yl)thiazol-2-amine] | 1000 to 10000 nM
CCCCCCCCN(C)c1ccc(Nc2nc(O)cs2)cc1C(F)(F)F [compound 651] | 1000 to 10000 nM
CCCCCCCCOc1ccc(Nc2nc(-c3cccc(S(N)(=O)=O)c3)cs2)cc1C(F)(F)F [compound 711] | < 1000 nM
CCCCCOc1ccc(Nc2nc3c(s2)CCc2ccncc2-3)cc1C(F)(F)F [compound 592, N-(3-(trifluoromethyl)-4-(pentyloxy)phenyl)-4,5-dihydrothiazolo[5,4-h]isoquinolin-2-amine] | < 1000 nM
CCCCCCCCOc1ccc(Nc2nc(-c3ccc(F)nc3)cs2)cc1C(F)(F)F [compound 526, N-(3-(trifluoromethyl)-4-(octyloxy)phenyl)-4-(6-fluoropyridin-3-yl)thiazol-2-amine] | < 1000 nM
CCCCCOc1ccc(Nc2nc(-c3ccc(F)nc3)cs2)cc1F [compound 527, N-(3-fluoro-4-(pentyloxy)phenyl)-4-(6-fluoropyridin-3-yl)thiazol-2-amine] | < 1000 nM
CCCCCCCCOc1ccc(Nc2nc(-c3ccc(-c4ccccn4)s3)cs2)cc1C(F)(F)F [compound 588, N-(3-(trifluoromethyl)-4-(octyloxy)phenyl)-4-(5-(pyridin-2-yl)thiophen-2-yl)thiazol-2-amine] | < 1000 nM
CCCCCOc1ccc(Nc2nc3c(s2)CCc2ncccc2-3)cc1C(F)(F)F [compound 594] | < 1000 nM
CCCCCCCCOc1ccc(Nc2nc(-c3cnc(OC)nc3)cs2)cc1C(F)(F)F [compound 662, N-(3-(trifluoromethyl)-4-(octyloxy)phenyl)-4-(2-methoxypyrimidin-5-yl)thiazol-2-amine] | < 1000 nM

same assay, conditions: Hepatitis C virus, replicon based assay of HCV replication inhibition; Table II; read-out: Activity

Compound | EC50
CCCCCOc1ccc(Nc2nc(CN3CCN(C(=O)OC(C)(C)C)CC3)cs2)cc1F [compound 279, tert-butyl 4-((2-(3-fluoro-4-(pentyloxy)phenylamino)thia-zol-4-yl)methyl)piperiazine-1-carboxylate] | 1000 to 10000 nM
CCCCCCCCOc1ccc(Nc2nc(-c3nc4ccccc4s3)cs2)cc1 [compound 388, 4-(benzo[d]thiazol-2-yl)-N-(4-(octyloxy)phenyl)thiazol-2-amine] | < 1000 nM
CCCCCOc1ccc(Nc2nc(CN3CCC[C@H]3C(=O)O)cs2)cc1C(F)(F)F [compound 268, (S)-1-((2-(4-(pentyloxy)-3-(trifluoromethyl)phenyl-amino)thiazol-4-yl)methyl)pyrrolidine-2-carboxylic acid] | < 1000 nM
CCCCCOc1ccc(Nc2nc(-c3ccc(CN(C)C)cc3)cs2)cc1C(F)(F)F [compound 234, 4-(4-((dimethylamino)methyl)phenyl)-N-(4-(pentyloxy)-3-(trifluoromethyl)phenyl)thia-zol-2-amine] | < 1000 nM
CCCCCOc1ccc(Nc2nc(CN3CCCCC3)cs2)cc1C(F)(F)F [compound 230, N-(4-(pentyloxy)-3-(trifluoromethyl)phenyl)-4-(piperidin-1-ylmethyl)thiazol-2-amine] | 1000 to 10000 nM
CCCCCOc1ccc(Nc2nc(-c3cc4cnccc4o3)cs2)cc1C(F)(F)F [compound 361, 4-(furo[3,2-c]pyridin-2-yl)-N-(4-(pentyloxy)-3-(trifluoromethyl)phenyl)thia-zol-2-amine] | < 1000 nM
CCCCCOc1ccc(Nc2nc(-c3ccncc3)cs2)cc1F [compound 417, N-(3-fluoro-4-(pentyloxy)phenyl)-4-(pyridin-4-yl)thiazol-2-amine] | 1000 to 10000 nM
CCCCCOc1ccc(Nc2nc(-c3ccc(Br)nc3)cs2)cc1C(F)(F)F [compound 459, 4-(6-bromopyridin-3-yl)-N-(3-(trifluoromethyl)-4-(pentyloxy)phenyl)thiazol-2-amine] | < 1000 nM
CCCCCCCCOc1ccc(Nc2nc(-c3ccc(Cl)c(Cl)c3)cs2)cc1 [compound 329, 4-(3,4-ddichlorophenyl)-N-(4-(octyloxy)phenyl)thiazol-2-amine] | 1000 to 10000 nM
CCCCCCCCOc1ccc(Nc2nc(-c3c(C)cc(C)nc3C)cs2)cc1 [compound 447, 4-(2,4,6-trimethylpyridin-3-yl)-N-(4-(octyloxy)phenyl)thiazol-2-amine] | > 10000 nM
CC(C)COc1ccc(Nc2nc(-c3ccc4c(c3)NC(=O)CO4)cs2)cc1C(F)(F)F [compound 252, 6-(2-(4-isobutoxy-3-(trifluoromethyl)phenyl-amino)thiazol-4-yl)-2H-benzo[b][1,4]oxazin-3(4H)-one] | < 1000 nM
CCCCCCCCOc1ccc(Nc2nc(CN3CCN(C(=O)OC(C)(C)C)CC3)cs2)cc1 [compound 308, tert-butyl 4-((2-(4-(octyloxy)phenylamino)thia-zol-4-yl)methyl)piperazine-1-carboxylate] | 1000 to 10000 nM
CCCCCOc1ccc(Nc2nc(Cc3ccccc3)cs2)cc1C(F)(F)F [compound 514, 4-benzyl-N-(3-(trifluoromethyl)-4-(pentyloxy)phenyl)thiazol-2-amine] | > 10000 nM

same assay, conditions: Hepatitis C virus, replicon based assay of HCV replication inhibition; Table IV; read-out: Activity

Compound | EC50
COc1cccc(-c2csc(Nc3ccc(OCC4CCCCC4)c(C(F)(F)F)c3)n2)n1 [compound 772, N-(4-(cyclohexylmethoxy)-3-(trifluoromethyl)phenyl)-4-(6-methoxypyridin-2-yl)thiazol-2-amine] | < 1000 nM
CCCCCCCCOc1ccc(Nc2nc(-c3nc4ccccc4n3C)cs2)cc1C(F)(F)F [compound 770, N-(3-(trifluoromethyl)-4-(octyloxy)phenyl)-4-(1-methyl-1H-benzo[d]imidazol-2-yl)thiazol-2-amine] | < 1000 nM
CCCCCCCOc1ccc(Nc2nc(-c3cccnc3)cs2)cc1C(F)(F)F [compound 823, N-(3-(trifluoromethyl)-4-(heptyloxy)phenyl)-4-(pyridin-3-yl)thiazol-2-amine] | < 1000 nM
c1ccc(CCCCOc2ccc(Nc3nc(-c4cccnc4)cs3)cc2)cc1 [compound 921, N-(4-(4-phenylbutoxy)phenyl)-4-(pyridin-3-yl)thiazol-2-amine] | < 1000 nM
